Test results published in patent US20200024278A1, “COMPOSITION COMPRISING ANTIBIOTIC COMPOUND AND AN HETEROCYCLIC COMPOUND AND THEIR USE IN PREVENTING OR TREATING BACTERIAL INFECTIONS” (MUTABILIS, priority 2016, published 2020).

Columns and labels:
Assay in all cases: MIC, broth microdilution (CLSI), substance alone or ATB combined with compound at 4 or 8 μg/mL
ECL P99 = assay type: cell-based, E. cloacae; settings: ECL P99
Outline: (§1)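 CLSI M7-A7 broth microdilution. ca-MHB, 5·10^5 CFU/mL log-phase cells, 16-20 h, 35° C, ambient air. Fosfomycin wells + 25 μg/ml glucose-6-phosphate. Visual MIC read.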

PAE 105250 = assay type: cell-based, P. aeruginosa; settings: PAE 105250
Outline: as §1

PAE UFR48 = assay type: cell-based, P. aeruginosa; settings: PAE UFR48
Outline: as §1

PAE UFR90 = assay type: cell-based, P. aeruginosa; settings: PAE UFR90
Outline: as §1

SAU 29213 = assay type: cell-based, S. aureus; settings: SAU 29213
Outline: as §1

SPN 49619 = assay type: cell-based, S. pneumoniae; settings: SPN 49619
Outline: as §1

Compound: CN(C)c1cc(NC(=O)CNC(C)(C)C)c(O)c2c1C[C@H]1C[C@H]3[C@H](N(C)C)C(O)=C(C(N)=O)C(=O)[C@@]3(O)C(O)=C1C2=O [TGC]
- MIC ATB combined with Example 11 @8 μg/ml (ECL P99; with Example 11 at 8 μg/ml): <0.031 µg/mL
- MIC ATB combined with Example 12 @8 μg/ml (ECL P99; with Example 12 at 8 μg/ml): <0.031 µg/mL
- MIC ATB combined with Example 13 @8 μg/ml (ECL P99; with Example 13 at 8 μg/ml): 0.25 µg/mL
- MIC ATB combined with Example 14 @8 μg/ml (ECL P99; with Example 14 at 8 μg/ml): <0.031 µg/mL
- MIC ATB combined with Example 15 @4 μgml (ECL P99; with Example 15 at 4 μg/ml): <0.031 µg/mL
- MIC ATB combined with Example 16 @4 μg/ml (ECL P99; with Example 16 at 4 μg/ml): <0.031 µg/mL
- MIC ATB alone (PAE 105250; antibiotic alone): 8 µg/mL
- MIC ATB combined with Example 1 @8 μg/ml (PAE 105250; with Example 1 @8 μg/ml): 0.5 µg/mL
- MIC ATB combined with Example 1 @8 μg/ml (PAE 105250; with Example 1 at 8 μg/ml): 0.5 µg/mL
- MIC ATB combined with Example 7 @8 μgml (PAE 105250; with Example 7 at 8 μg/ml): 32 µg/mL
- MIC ATB combined with Example 9 @4 μg/ml (PAE 105250; with Example 9 @4 μg/ml): 8 µg/mL
- MIC ATB combined with Example 9 @4 μg/ml (PAE 105250; with Example 9 at 4 μg/ml): 8 µg/mL
- MIC ATB combined with Example 11 @8 μg/ml (PAE 105250; with Example 11 at 8 μg/ml): 8 µg/mL
- MIC ATB combined with Example 12 @8 μg/ml (PAE 105250; with Example 12 at 8 μg/ml): 8 µg/mL
- MIC ATB combined with Example 13 @8 μg/ml (PAE 105250; with Example 13 at 8 μg/ml): 8 µg/mL
- MIC ATB combined with Example 14 @8 μg/ml (PAE 105250; with Example 14 at 8 μg/ml): 8 µg/mL
- MIC ATB combined with Example 15 @4 μgml (PAE 105250; with Example 15 at 4 μg/ml): 8 µg/mL
- MIC ATB combined with Example 16 @4 μg/ml (PAE 105250; with Example 16 at 4 μg/ml): 8 µg/mL
- MIC ATB alone (PAE UFR48; antibiotic alone): 32 µg/mL
- MIC ATB combined with Example 1 @8 μg/ml (PAE UFR48; with Example 1 @8 μg/ml): <0.031 µg/mL
- MIC ATB combined with Example 1 @8 μg/ml (PAE UFR48; with Example 1 at 8 μg/ml): <0.031 µg/mL
- MIC ATB combined with Example 7 @8 μgml (PAE UFR48; with Example 7 at 8 μg/ml): >32 µg/mL
- MIC ATB combined with Example 9 @4 μg/ml (PAE UFR48; with Example 9 @4 μg/ml): 32 µg/mL
- MIC ATB combined with Example 9 @4 μg/ml (PAE UFR48; with Example 9 at 4 μg/ml): 32 µg/mL
- MIC ATB combined with Example 11 @8 μg/ml (PAE UFR48; with Example 11 at 8 μg/ml): 32 µg/mL
- MIC ATB combined with Example 12 @8 μg/ml (PAE UFR48; with Example 12 at 8 μg/ml): 32 µg/mL
- MIC ATB combined with Example 13 @8 μg/ml (PAE UFR48; with Example 13 at 8 μg/ml): 32 µg/mL
- MIC ATB combined with Example 14 @8 μg/ml (PAE UFR48; with Example 14 at 8 μg/ml): 32 µg/mL
- MIC ATB combined with Example 15 @4 μgml (PAE UFR48; with Example 15 at 4 μg/ml): 32 µg/mL
- MIC ATB combined with Example 16 @4 μg/ml (PAE UFR48; with Example 16 at 4 μg/ml): 32 µg/mL
- MIC ATB alone (PAE UFR90; antibiotic alone): 16 µg/mL
- MIC ATB combined with Example 1 @8 μg/ml (PAE UFR90; with Example 1 @8 μg/ml): <0.031 µg/mL
- MIC ATB combined with Example 1 @8 μg/ml (PAE UFR90; with Example 1 at 8 μg/ml): <0.031 µg/mL
- MIC ATB combined with Example 7 @8 μgml (PAE UFR90; with Example 7 at 8 μg/ml): 32 µg/mL
- MIC ATB combined with Example 9 @4 μg/ml (PAE UFR90; with Example 9 @4 μg/ml): 16 µg/mL
- MIC ATB combined with Example 9 @4 μg/ml (PAE UFR90; with Example 9 at 4 μg/ml): 16 µg/mL
- MIC ATB combined with Example 11 @8 μg/ml (PAE UFR90; with Example 11 at 8 μg/ml): 16 µg/mL
- MIC ATB combined with Example 12 @8 μg/ml (PAE UFR90; with Example 12 at 8 μg/ml): 16 µg/mL
- MIC ATB combined with Example 13 @8 μg/ml (PAE UFR90; with Example 13 at 8 μg/ml): 16 µg/mL
- MIC ATB combined with Example 14 @8 μg/ml (PAE UFR90; with Example 14 at 8 μg/ml): 16 µg/mL
- MIC ATB combined with Example 15 @4 μgml (PAE UFR90; with Example 15 at 4 μg/ml): 16 µg/mL
- MIC ATB combined with Example 16 @4 μg/ml (PAE UFR90; with Example 16 at 4 μg/ml): 16 µg/mL
- MIC ATB alone (SAU 29213; antibiotic alone): 0.25 µg/mL
- MIC ATB combined with Example 1 @8 μg/ml (SAU 29213; with Example 1 @8 μg/ml): 0.125 µg/mL
- MIC ATB combined with Example 1 @8 μg/ml (SAU 29213; with Example 1 at 8 μg/ml): 0.125 µg/mL
- MIC ATB combined with Example 7 @8 μgml (SAU 29213; with Example 7 at 8 μg/ml): 0.25 µg/mL
- MIC ATB combined with Example 9 @4 μg/ml (SAU 29213; with Example 9 @4 μg/ml): <0.031 µg/mL
- MIC ATB combined with Example 9 @4 μg/ml (SAU 29213; with Example 9 at 4 μg/ml): <0.031 µg/mL
- MIC ATB combined with Example 11 @8 μg/ml (SAU 29213; with Example 11 at 8 μg/ml): <=0.031 μg/mL
- MIC ATB combined with Example 12 @8 μg/ml (SAU 29213; with Example 12 at 8 μg/ml): <0.031 µg/mL
- MIC ATB combined with Example 13 @8 μg/ml (SAU 29213; with Example 13 at 8 μg/ml): 0.063 µg/mL
- MIC ATB combined with Example 14 @8 μg/ml (SAU 29213; with Example 14 at 8 μg/ml): <0.031 µg/mL
- MIC ATB combined with Example 15 @4 μgml (SAU 29213; with Example 15 at 4 μg/ml): <0.031 µg/mL
- MIC ATB combined with Example 16 @4 μg/ml (SAU 29213; with Example 16 at 4 μg/ml): <0.031 µg/mL
- MIC ATB alone (SPN 49619; antibiotic alone): 0.125 µg/mL
- MIC ATB combined with Example 1 @8 μg/ml (SPN 49619; with Example 1 @8 μg/ml): 0.125 µg/mL
- MIC ATB combined with Example 1 @8 μg/ml (SPN 49619; with Example 1 at 8 μg/ml): 0.125 µg/mL
- MIC ATB combined with Example 7 @8 μgml (SPN 49619; with Example 7 at 8 μg/ml): 0.063 µg/mL
- MIC ATB combined with Example 9 @4 μg/ml (SPN 49619; with Example 9 @4 μg/ml): <0.031 µg/mL
- MIC ATB combined with Example 9 @4 μg/ml (SPN 49619; with Example 9 at 4 μg/ml): <0.031 µg/mL
- MIC ATB combined with Example 11 @8 μg/ml (SPN 49619; with Example 11 at 8 μg/ml): <=0.031 μg/mL
- MIC ATB combined with Example 12 @8 μg/ml (SPN 49619; with Example 12 at 8 μg/ml): <0.031 µg/mL
- MIC ATB combined with Example 13 @8 μg/ml (SPN 49619; with Example 13 at 8 μg/ml): 0.063 µg/mL
- MIC ATB combined with Example 14 @8 μg/ml (SPN 49619; with Example 14 at 8 μg/ml): <0.031 µg/mL
- MIC ATB combined with Example 15 @4 μgml (SPN 49619; with Example 15 at 4 μg/ml): <=0.031 μg/mL
- MIC ATB combined with Example 16 @4 μg/ml (SPN 49619; with Example 16 at 4 μg/ml): <0.031 µg/mL
